Test results: publication PMC10671715, “Self-Entrapment of Antimicrobial Peptides in Silica Particles for Stable and Effective Antimicrobial Peptide Delivery System” (International Journal of Molecular Sciences, 2023)
Where two headings read alike, the source gives them in different places. Marks after values point to notes of the source that are not given here.

What was measured:
E. coli = assay type: cell-based, Escherichia coli (wild type W2110); details: 18 h
Procedure: (§1) Two Gram-negative bacterial strains, namely Escherichia coli (wild type W2110) and Pseudomonas aeruginosa (wild type PK01) and Gram-positive strain, […] (ATCC 29213) were obtained from the Department of Biotechnology and Bioinformatics at Korea University.
(§2) The broth microdilution assay was used to test the antimicrobial activity of AMPs, as previously reported. Briefly, bacteria were grown to mid-logarithmic growth phase in Mueller Hinton Broth (MHB) media at 37 °C. Then, in 96-well plates, 50 µL of peptide solution (0–320 µM) diluted using a 2-fold serial dilution method was mixed with an equal volume of bacterial solution (3 × 10^6 CFU/mL) and incubated for 18 h at 37 °C with shaking at 200 rpm. The negative control was the culture medium itself. […] The assay was performed in triplicate.

P. aeruginosa = assay type: cell-based, Pseudomonas aeruginosa (wild type PK01); details: 18 h
Procedure: as §1, §2

S. aureus [1] = assay type: cell-based, Staphylococcus aureus (ATCC 29213); details: 18 h
Procedure: as §1, §2

[2] = system: sheep red blood cells (RBCs); experiment: Hemolytic activity assay; assay type: cell-based; details: at 77.5 μM (free peptides: up to 77.5 μM); 37 °C, 1 h, A570, 100% = 1% Triton X-100; N = 3
Procedure: Free peptides and silica particles loaded with them (AMP@Si) were compared for their cytotoxicity against mouse macrophages (Raw264.7 cells) and their hemolytic activity against RBCs. Free AMP or AMP@Si was added to each well of a 96-well plate in 2-fold serial dilutions to 50 μL with DMEM medium containing 10% FBS and 1% antibiotics. Raw264.7 macrophages at a concentration of 4 × 10^4 cells per 50 μL were added to the wells containing the peptide to give a final volume of 100 μL. Cell proliferation was confirmed by MTS assay (Promega, Madison, WI, USA) after 24 h or 5 days of incubation. The MTS tetrazolium compound was reduced by viable cells to generate a colored formazan product. […] To calculate cell viability, the absorbance of cells treated with the peptide was divided by the absorbance of cells that were not treated with the peptide. The resulting quotient was then expressed as a percentage. […] The supernatant (100 μL) was collected after centrifugation at 1000× g for 5 min, and the absorbance (A) was measured at 570 nm. The value of “zero hemolysis” was determined by the absorbance of PBS alone, and 100% hemolysis was determined by the absorbance of the supernatant obtained from 1% (v/v) Triton X-100-treated RBCs. The percentage of hemolysis was calculated as hemolysis (%) = (AAMP − APBS)/(ATriton − APBS) × 100. […]

S. aureus [3] = system: S. aureus; parameters: method as in PMID 33236626; details: cited from earlier work
[4] = system: E. coli (after trypsin treatment of AMP); experiment: Residual antibacterial activity after trypsin treatment; details: 300 μM in 1× PBS, 0.025% trypsin, 37 °C, 3 min, stopped with FBS; overnight culture, OD600; N = 3
Procedure: (§3) The absorbance value of the bacteria in the absence of AMP was used as the negative control. The absorbance value of the bacteria grown in the presence of trypsinized AMP was subtracted from that of the negative control, and the resulting difference was expressed as a percentage fraction of the negative control, yielding the residual antibacterial activity of AMP after trypsin treatment (Figure 6a).
(§4) Free AMP or AMP@Si was dissolved in 1 × PBS at a concentration of 300 μM and left at 37 °C for 3 min in the presence of 0.025% trypsin, followed by the addition of fetal bovine serum (FBS) to stop the activity of trypsin. Bacteria were incubated overnight with each trypsinized peptide formula, and broth absorbance was measured at 600 nm. As a negative control, the absorbance of the strain grown in the absence of the peptide was set. To determine the remaining antimicrobial activity of AMP after treatment of trypsin, the absorbance of the sample treated with AMP was subtracted from the absorbance of the negative control. The resulting difference was then expressed as a percentage of the absorbance of the negative control.
(§5) (a) The residual antibacterial activity was calculated by taking the difference in optical density at 600 nm between the negative control and the sample containing the trypsinized AMP. It was then divided by the optical density of the negative control and multiplied by 100. Each bacterial solution grown in a medium without AMP is used as a corresponding negative control. […] The image is a 10,000× magnification, the inside image is a 20,000× magnification, and the scale bar represents 1 µm.

[5] = system: P. aeruginosa (after trypsin treatment of AMP); experiment: as above; details: 300 μM in 1× PBS, 0.025% trypsin, 37 °C, 3 min, stopped with FBS; overnight culture, OD600; N = 3
Procedure: as §3, §4, §5

[6] = system: S. aureus (after trypsin treatment of AMP); experiment: as above; details: 300 μM in 1× PBS, 0.025% trypsin, 37 °C, 3 min, stopped with FBS; overnight culture, OD600; N = 3
Procedure: as §3, §4, §5

Raw264.7 cells = experiment: Cytotoxicity, MTS assay; assay type: cell-based, mouse; details: for Cell viability: 24 h, MTS, N = 3
Procedure: Free peptides and silica particles loaded with them (AMP@Si) were compared for their cytotoxicity against mouse macrophages (Raw264.7 cells) and their hemolytic activity against RBCs. Free AMP or AMP@Si was added to each well of a 96-well plate in 2-fold serial dilutions to 50 μL with DMEM medium containing 10% FBS and 1% antibiotics. Raw264.7 macrophages at a concentration of 4 × 10^4 cells per 50 μL were added to the wells containing the peptide to give a final volume of 100 μL. Cell proliferation was confirmed by MTS assay (Promega, Madison, WI, USA) after 24 h or 5 days of incubation. The MTS tetrazolium compound was reduced by viable cells to generate a colored formazan product. The intensity of the color at 490 nm is proportional to the number of viable cells in the sample. To calculate cell viability, the absorbance of cells treated with the peptide was divided by the absorbance of cells that were not treated with the peptide. The resulting quotient was then expressed as a percentage. […] The supernatant (100 μL) was collected after centrifugation at 1000× g for 5 min, and the absorbance (A) was measured at 570 nm. The value of “zero hemolysis” was determined by the absorbance of PBS alone, and 100% hemolysis was determined by the absorbance of the supernatant obtained from 1% (v/v) Triton X-100-treated RBCs. The percentage of hemolysis was calculated as hemolysis (%) = (AAMP − APBS)/(ATriton − APBS) × 100.
Figure 7 The hemolytic activity and cytotoxicity of AMPs. […] (b) The cytotoxicity of AMP was measured 24 h after the addition of each indicated concentration of AMP to Raw264.7 cells grown overnight. Cell survival is expressed as a percentage of the negative control grown without AMP.
Figure S4. […] The cytotoxicity of AMP was measured 5 days after incubation of Raw 264.7 cells (4 x 10^5 cells/ mL) in the presence of each indicated concentration of AMP Cell survival was expressed as a percentage of the negative control grown without AMP. […]

[7] = free peptide, MHB, 2-fold dilution 0–320 µM, 37 °C, OD600, mean ± standard error of three replicate experiments

Ac-KRIVQRIKDFLR-NH2 [KR12, reference compound]
Minimum inhibitory concentration (MIC) (E. coli): 103.36 ± 25.82 µM | Minimum inhibitory concentration (MIC) (P. aeruginosa): 181.98 ± 68.20 µM | Minimum inhibitory concentration (MIC) (S. aureus [1]): >320 ^a µM | Hemolysis [2]: less than 1%

CC(=O)N[C@@H](CCCNC(=N)N)C(=O)N[C@@H](CCCCN)C(=O)N[C@@H](CCCCN)C(=O)N[C@@H](CCCNC(=N)N)C(=O)N[C@@H](CCCNC(=N)N)C(=O)N[C@@H](CCC(N)=O)C(=O)N[C@@H](CCCNC(=N)N)C(=O)N[C@@H](CCCNC(=N)N)C(=O)N[C@@H](CCCNC(=N)N)C(N)=O
entrapment efficiency (EE): 95%

YGRKKRRQRRKRIVQRIKDFLR [TAT-KR-12, literature peptide developed for treatment of intracellular S. aureus infection]
Antibacterial activity against S. aureus (S. aureus [3]): enhanced antibacterial activity

Ac-RKKRRQRRRGSSKRIVQRIKDFLR-NH2 [CPP-KR12]
Minimum inhibitory concentration (MIC) (E. coli; [7]): 12.09 ± 4.97 µM | Minimum inhibitory concentration (MIC) (P. aeruginosa; [7]): 6.12 ± 3.72 µM | Minimum inhibitory concentration (MIC) (S. aureus [1]; [7]): 22.80 ± 8.48 µM | Residual antibacterial activity after trypsin treatment [4]: approximately 10% | Residual antibacterial activity after trypsin treatment [5]: approximately 15% | Residual antibacterial activity after trypsin treatment [6]: approximately 15% | Hemolysis [2]: less than 1% | Cytotoxicity (Raw264.7 cells; 6 µM): not cytotoxic | Cell viability (Raw264.7 cells; 19.38 μM): 80% | Cell viability (Raw264.7 cells; 77.5 μM): 10% | entrapment efficiency (EE): 95%
